Results on 28 compounds are retold here after patent publication EP4585588A1, “BENZIMIDAZOLE COMPOUND, AND PREPARATION METHOD THEREFOR AND USE THEREOF” (Suzhou Pharmavan Co., Ltd., priority 2022, dated 2024).

The assay deals with myosin heavy chain β (β-MHC). To be noted: 48 h, 10 µM.
Description: Primary cardiomyocytes of suckling rats were isolated and cultured and inoculated on a cell culture plate. A drug stock solution was taken and separately added to cell wells according to a certain dilution ratio, and a final concentration was 10 µM. After half hour of drug action, a phenylephrine (PE) stock solution was added, and a final concentration of PE was 20 µM. After 48 hours of PE action, cell samples were collected for real-time quantitative PCR assay or cell area measurement.
Separation and plating of cardiomyocytes of rats: a certain number of SPF suckling rats were taken and placed in a clean bench according to an actual requirement for the number of cells, thoracic cavities were opened by scissors, hearts were separated, and the hearts were cut into tissue fragments with sterilized surgical scissors; Collagenase Type II (manufacturer: Sigma, article No.: C2-28-100MG) was added to a D-HANKS balanced salt buffer to prepare a 5 µg/mL enzyme digestion solution, and the tissue fragments of hearts were continuously digested for three times in a 37 °C constant-temperature water bath box; about 2 mL of the enzyme digestion solution was added for the first time, a supernatant was discarded after digestion, centrifugation and precipitation of cardiomyocytes and tissue fragments, about 4 mL of the enzyme digestion solution was independently added for the second time and the third time to continue digestion, a supernatant was remained each time, DMEM containing 10% FBS with the same volume as the digestion solution in the supernatant was immediately added to neutralize digestive enzymes, the supernatants for the second time and the third time were combined and centrifuged, a supernatant was discarded, an appropriate amount of DMEM containing 10% FBS was added to resuspend the cardiomyocytes, the cardiomyocytes were inoculated in a 100 mm culture plate and subjected to differential adhesion in a constant-temperature cell incubator for 2 h, and a supernatant was taken for cell count.
A 24-well plate precoated with 1% gelatin was taken and plated at 1×10^5 cells/well, 500 µL of a 10% FBS+DMEM medium was contained in each well, and cells were cultured in a 37 °C constant-temperature cell incubator for 24 h. Different compounds were independently prepared into a 100 mM mother liquor with DMSO and gradient diluted with a 10% FBS+DMEM medium to prepare a 10 µM final solution of the compound containing 0.5% DMSO. The medium in the 24-well plate was discarded and replaced with a 500 µL/well medium containing a 10 µM compound, and three replicate wells and a negative control well were set for each compound. After 0.5 hours of drug action, PE (manufacturer: Meilun Biotechnology; article No.: MB1602) with a final concentration of 20 µM was added to each well, and no PE was added to the negative control wells; after 48 hours of PE action, sample detection was performed.
Expression levels of genes related to cardiomyocyte hypertrophy was analyzed via real-time quantitative PCR detection of mRNA level of atrial natriuretic peptide (ANP) and myosin heavy chain β (β-MHC). The steps include extraction of total RNA of cells, reverse transcription synthesis of cDNA and real-time quantitative PCR assay.
Based on real-time quantitative PCR detection of an mRNA level of ANP of cardiomyocytes, a drug with a potential of anti-cardiomyocyte hypertrophy was preliminarily screened and verified with an mRNA level of another hypertrophy gene β-MHC using a statistical method One-way ANOVA and statistical software GraphPad Prism.
Turning to `C=CCc1cc(F)c(C(C)(C)O)c(-c2ccc3[nH]c(C)nc3c2)c1` [Formula II-17, 2-(4-allyl-2-fluoro-6-(2-methyl-1H-benzimidazol-5-yl)phenyl)propane-2-ol], the “Mean (real-time quantitative PCR validation results of cardiomyocyte β-MHC)” value (“Mean” below) came out at 1.13. The value for `CCCc1cc(C#N)c(CO)c(-c2ccc3[nH]c(C)nc3c2)c1` [Formula II-120, 2-(hydroxymethyl)-3-(2-methyl-1H-benzimidazol-5-yl)-5-propylbenzonitrile] was 1.45; that for `CN(C)C(=O)c1cc(F)c(O)c(-c2ccc3[nH]cnc3c2)c1` [Formula I-31, 3-fluoro-4-hydroxy-N,N-dimethyl-5-(1H-benzimidazol-5-yl)benzamide] was 1.29; that for `COC(=O)c1cc(C#N)c(C(C)O)c(-c2ccc3[nH]c(C)nc3c2)c1` (stereo not shown) [Formula II-63, methyl 3-cyano-4-(1-hydroxyethyl)-5-(2-methyl-1H-benzimidazol-5-yl) benzoate] was 1.36. `C=CCc1cc(C#N)c(C(C)(C)O)c(-c2ccc3[nH]c(C)nc3c2)c1` [Formula II-18, 5-allyl-2-(2-hydroxypropan-2-yl)-3-(2-methyl-1H-benzimidazol-5-yl)benzonitrile]: the “Mean” value is on record as 1.19. The value for `Cc1nc2cc(-c3cc(CC#N)cc(F)c3O)ccc2[nH]1` [Formula I-19, 2-(3-fluoro-4-hydroxy-5-(2-methyl-1H-benzimidazol-5-yl)phenyl)acetonitrile] was 1.26; that for `CN(C)C(=O)c1cc(F)c(CO)c(-c2ccc3[nH]cnc3c2)c1` [Formula II-128, 3-fluoro-4-(hydroxymethyl)-N,N-dimethyl-5-(1H-benzimidazol-5-yl)benzamide] was 1.27; that for `CC(O)c1ccc(CC#N)cc1-c1ccc2[nH]cnc2c1` (stereo not shown) [Formula II-91, 2-(4-(1-hydroxyethyl)-3-(1H-benzimidazol-5-yl)phenyl)acetonitrile] was 1.57. The value for `Cc1nc2cc(-c3cc(CC#N)cc(F)c3CO)ccc2[nH]1` [Formula II-116, 2-(3-fluoro-4-(hydroxymethyl)-5-(2-methyl-1H-benzimidazol-5-yl)phenyl)acetonitrile] was 1.58. For the compound `Cc1nc2cc(-c3cc(C(=O)N(C)C)cc(C#N)c3C(C)(C)O)ccc2[nH]1` [Formula II-9, 3-cyano-4-(2-hydroxypropan-2-yl)-N,N-dimethyl-5-(2-methyl-1H-benzimidazol-5-yl)benzamide], the “Mean” value was determined as 1.18. As for `C=CCc1cc(C#N)c(C(C)(C)O)c(-c2ccc3[nH]cnc3c2)c1` [Formula II-42, 5-allyl-2-(2-hydroxypropan-2-yl)-3-(1H-benzimidazol-5-yl)benzonitrile], the figure is 1.48; as for `C=CCc1cc(C#N)c(O)c(-c2ccc3[nH]cnc3c2)c1` [Formula I-41, 5-allyl-3-(1H-benzimidazol-5-yl)-2-hydroxybenzonitrile], 1.37; as for `CCCc1cc(F)c(C(C)O)c(-c2ccc3[nH]cnc3c2)c1` (stereo not shown) [Formula II-95, 1-(2-fluoro-6-(1H-benzimidazol-5-yl)-4-propylphenyl)ethane-1-ol], 1.24. The value for `COC(=O)c1cc(F)c(CO)c(-c2ccc3[nH]c(C)nc3c2)c1` [Formula II-110, methyl 3-fluoro-4-(hydroxymethyl)-5-(2-methyl-1H-benzimidazol-5-yl) benzoate] was 1.34. The value for `Cc1nc2cc(-c3cc(C(=O)O)cc(F)c3O)ccc2[nH]1` [Formula I-10, 3-fluoro-4-hydroxy-5-(2-methyl-1H-benzimidazol-5-yl)benzoic acid] was 1.14; that for `CC(O)c1ccc(C(=O)O)cc1-c1ccc2[nH]cnc2c1` (stereo not shown) [Formula II-82, 4-(1-hydroxyethyl)-3-(1H-benzimidazol-5-yl)benzoic acid] was 1.15. For the compound `COC(=O)c1ccc(CO)c(-c2ccc3[nH]cnc3c2)c1` [Formula II-133, methyl 4-(hydroxymethyl)-3-(1H-benzimidazol-5-yl) benzoate], the “Mean” value turned out to be 1.46.

For the compound `CC(C)(O)c1c(C#N)cc(C(N)=O)cc1-c1ccc2[nH]cnc2c1` [Formula II-30, 3-cyano-4-(2-hydroxypropan-2-yl)-5-(1H-benzimidazol-5-yl)benzamide], the “Mean” value was determined as 1.21. The value for `O=C(O)c1ccc(O)c(-c2ccc3[nH]cnc3c2)c1` [Formula I-33, 4-hydroxy-3-(1H-benzimidazol-5-yl)benzoic acid] was 1.22; that for `CC(C)(O)c1ccc(CC#N)cc1-c1ccc2[nH]cnc2c1` [Formula II-43, 2-(4-(2-hydroxypropan-2-yl)-3-(1H-benzimidazol-5-yl)phenyl)acetonitrile] was 1.21; that for `CCCc1ccc(CO)c(-c2ccc3[nH]cnc3c2)c1` [Formula II-142, (2-(1H-benzimidazol-5-yl)-4-propylphenyl)methanol] was 1.40. For `COC(=O)c1ccc(O)c(-c2ccc3[nH]c(C)nc3c2)c1` [Formula I-12, methyl 4-hydroxy-3-(2-methyl-1H-benzimidazol-5-yl) benzoate], the “Mean” value is recorded as 1.19. As for `CC(O)c1c(C#N)cc(C(N)=O)cc1-c1ccc2[nH]cnc2c1` (stereo not shown) [Formula II-78, 3-cyano-4-(1-hydroxyethyl)-5-(1H-benzimidazol-5-yl)benzamide], the figure is 1.35; as for `C=CCc1ccc(C(C)O)c(-c2ccc3[nH]c(C)nc3c2)c1` (stereo not shown) [Formula II-64, 1-(4-allyl-2-(2-methyl-1H-benzimidazol-5-yl)phenyl)ethane-1-ol], 1.22; as for `NC(=O)c1cc(F)c(O)c(-c2ccc3[nH]cnc3c2)c1` [Formula I-28, 3-fluoro-4-hydroxy-5-(1H-benzimidazol-5-yl)benzamide], 1.07. `CCCc1ccc(O)c(-c2ccc3[nH]cnc3c2)c1` [Formula I-45, 2-(1H-benzimidazol-5-yl)-4-propylphenol]: the “Mean” value was 1.39.

In the case of `C=CCc1cc(C#N)c(C(C)O)c(-c2ccc3[nH]cnc3c2)c1` (stereo not shown) [Formula II-90, 5-allyl-2-(1-hydroxyethyl)-3-(1H-benzimidazol-5-yl)benzonitrile], the “Mean” value worked out at 1.27. The value for `Cc1nc2cc(-c3cc(CC#N)ccc3O)ccc2[nH]1` [Formula I-18, 2-(4-hydroxy-3-(2-methyl-1H-benzimidazol-5-yl)phenyl)acetonitrile] was 1.18.
